# Where “and” joins values, the source holds several entries; their conditions need not be identical. Identical values can stand only once. Entries after “also recorded” stand apart in the source; their conditions may differ.
# What was measured:
# [1] = test system: patients with newly diagnosed glioblastoma (GBM); assay: Phase I/IIa trial of cilengitide and temozolomide with concomitant radiotherapy, then maintenance, in newly diagnosed glioblastoma; type: in vivo, human
# Description: Patients and methods: Fifty-two pts (PS 0-1: 92%, 2: 8%; median age 57 yrs) after biopsy (n=9/17%) or tumor resection (n=43/83%) were treated with standard TMZ/RT (Stupp et al. NEJM 2005). In addition Cilengitide (500 mg i.v., 2×/week) was started one week before TMZ/RT and given throughout for the duration of chemotherapy or until progression. Primary endpoint was progression free survival rate at 6 months (target: 65%). Patients were followed with MRI every 2 months. Histopathologic diagnosis and MRI imaging were independently reviewed, MGMT promoter methylation status was assessed in 45 (86.5%) pts.
# NSCLC (A549) = assay: Proliferation assay (vitronectin-coated plates, Alamar Blue); type: cell-based; details: A549, 72 hours; concentration held constant in combination with chemotherapeutic agents; read-out: constant EC50 concentration of alpha V integrin blocker
# Description: A549-DMEM containing 10% FCS (heat-inactivated) plus 2 mM glutamine,
# (§1) Briefly, 2.5×10e4 cells/well in RPMI containing 0.5% BSA and 25 mM Hepes pH 7.4 attached to non-tissue culture treated 96-well plates coated with serially diluted vitronectin, fibronectin, fibrinogen and collagen I for 60 minutes at 37° C. After washing to remove unbound cells the relative cell number is determined by incubation with hexosaminidase substrate. The colormetric reaction is read at 405 nm in a Genios plate reader (SLT). Proliferation assay Non-tissue cultures treated 96 well plates are coated using 100 ul/well of a 2 ug/ml vitronectin solution in PBS incubated overnight at 4° C. Cells are plated at 5×10e3 in 100 ul cell culture medium (as described above for each cell line). […] Plates are incubated for 72 hours, after which relative cell number is determined by the addition of 20 ul/well Alamar Blue (Resazurin) (Nakayama et al. 1997). After 4 hours of incubation at 37° C. relative fluorescent intensity is read in a Genios plate reader (SLT) at 535/590 nm (excitation/emission).
# (§2) Points are run in triplicate. Reagent blanks, containing media plus colormetric reagent without cells, are run on each plate. Blank values are subtracted from test values and are routinely 5-10% of uninhibited control values. […]
# various brain tumors = details: cited from earlier work
# [2] = test system: Endothelial Cells (HUVEC); assay: Proliferation assay (vitronectin-coated plates, Alamar Blue); type: cell-based; details: 72 hours, concentration held constant in combination with chemotherapeutic agents, read-out: constant EC50 concentration of alpha V integrin blocker
# Description: HUVEC-DMEM containing 10% FCS (heat-inactivated) plus 2 mM glutamine and 1 mM sodium pyruvate.
# as §1, §2
# [3] = test system: U251 human glioblastoma cells; assay: Rat orthotopic glioblastoma model radiotherapy, cilengitide scheduling experiments; type: in vivo, NIH mu nude rats; details: for Days Post Implant (survival): listed as Rt + EMD, 4 mg/kg
# Description: NIH mu nude rats are anaesthetized, restrained, and injected intracerebrally 1 mm retro orbitally, 3 mm to the right of the bregma and at a depth of 2.5 mm with 5×10E5 U251 human glioblastoma cells suspended in 10 ul of culture medium, using a #2701 Hamilton syringe fitted with a 26 gauge needle, essentially as previously described (Engebraaten et al., 1999). After 14 days, cilengitide (4 mg/kg) is given as an intraperitoneal bolus in PBS, at various time (8 h, 4 h, 2 h, 1 h) prior to a single treatment with single, collimated, dorsal-ventral beam of 6 MV x-rays, so that 95-100% of the central axis dose of 25 Gy hit the tumor volume (Kim et al., 1999). Each of the 7 subsequent days the animals also received an identical i.p. bolus of cilengitide. The animals are maintained under ad libitum food and drink until they become moribund, or are sampled for tissue analysis (in the t-4 and t-8 h groups, where the animals are healthy past 230 days post tumor injection). A Kaplan-Meier survival curve is calculated and plotted (FIG. 1) from the raw data (Table 1). All animals in the RT monotherapy group died by 120 d.
# [4] = test system: patients with recurrent glioblastoma (GBM); assay: Phase IIa trial of cilengitide single agent therapy in patients with recurrent glioblastoma; type: in vivo, human
# Description: Background: The present phase IIa study was designed to evaluate the safety, toxicity, and clinical activity of the cyclic RGD pentapeptide cilengitide ((=cyclo-(Arg-Gly-Asp-DPhe-NMe-Val)), an inhibitor of integrins αvβ3 and αvβ5, as a single agent at doses of 500 and 2000 mg in patients (pts) with recurrent glioblastoma (GBM).
# Methods: In this multicenter, open-label, randomized, uncontrolled study, pts with GBM and measurable disease that had relapsed after previous therapy with temozolomide and radiotherapy were randomized to receive cilengitide at doses of either 500 mg or 2000 mg i.v., 2×/week, until progression.
# Histopathology diagnosis and MRI imaging were subject to independent blinded review. The primary endpoint was Progression Free Survival (PFS) at 6 months (mths). Secondary endpoints included response, survival, time to disease progression, safety, tolerability and pharmacokinetics.
smiles,measurement,setting,value
"CC(C)[C@H]1C(=O)N[C@@H](CCCN=C(N)N)C(=O)NCC(=O)N[C@@H](CC(=O)O)C(=O)N[C@H](Cc2ccccc2)C(=O)N1C [Cilengitide, cyclo-(Arg-Gly-Asp-DPhe-NMeVal)]",haematological grade 3 and 4 toxicity: neutropenia,"[1]; Cilengitide 500 mg plus TMZ/RT, 5/52",9.6%
same,"Treatment related non-hematologic grade 3 toxicities, patients","[1]; Cilengitide 500 mg plus TMZ/RT, n=3/52",5.7%
same,PFS-6 rate,"[1]; Cilengitide 500 mg plus TMZ/RT, subgroup with methylated MGMT promoter (23/52)",91%
same,tolerability,[1]; combination of Cilengitide and TMZ/RT,well tolerated
same,other adverse event,[1]; one patient with a history of sigmoid diverticulosis,sigmoid perforation (grade 2)
same,EC50,NSCLC (A549),6 nM
same,MTD in humans,"various brain tumors; human, in vivo",no known MTD
same,tolerability,"various brain tumors; human, in vivo",very well tolerated
same,response,various brain tumors; in some of the GBM patients,an indication of response was seen
same,EC50,[2],0.2 nM
same,Days Post Implant (survival),"[3]; cilengitide bolus 4 mg/kg i.p. 1 hour pre-irradiation (Rt 25 Gy) plus 7 daily boluses, all Sick (moribund)",112 days and 113 days and 130 days and 141 days
same,Days Post Implant (survival),"[3]; cilengitide bolus 4 mg/kg i.p. 2 hours pre-irradiation (Rt 25 Gy) plus 7 daily boluses, all Sick (moribund)",120 days and 147 days and 162 days and 196 days
same,Days Post Implant (survival),"[3]; cilengitide bolus 4 mg/kg i.p. 4 hours pre-irradiation (Rt 25 Gy) plus 7 daily boluses, Healthy/Alive animals not dead at day shown",238 days and 254 days
same,Days Post Implant (survival),"[3]; cilengitide bolus 4 mg/kg i.p. 8 hours pre-irradiation (Rt 25 Gy) plus 7 daily boluses, Healthy/Alive animals not dead at day shown",287 days and 257 days
same,"animals healthy, days post tumor injection","[3]; t-4 and t-8 h groups, cilengitide 4 mg/kg plus 25 Gy",> 230 days
same,median Overall Survival (mOS),"[4]; 500 mg arm, i.v. 2x/week",6.5 mths
same,"tumor control, dose comparison","[4]; 2000 mg 2x/week versus 500 mg, not statistically significant",trend towards better tumor control
same,12 mth overall survival (OS) rate,"[4]; 2000 mg arm, i.v. 2x/week",37.5%
same,median Overall Survival (mOS),"[4]; 2000 mg arm, i.v. 2x/week",9.9 mths
same,Treatment related NCI CTC grade 3 adverse events,"[4]; at 500 mg, each in 1 patient",elevated liver enzymes; also recorded: arthralgia/myalgia
same,Treatment related NCI CTC grade 3 adverse events,"[4]; at 2000 mg, in 1 patient",weight increase/edema
same,grade 4 therapy related AEs,[4]; both arms,No grade 4 therapy related AEs
same,pts who received 12 or more cycles of therapy,"[4]; both arms, 10 pts (n=4 with 500 mg, n=6 with 2000 mg), 1 cycle=4 weeks",12.3%
same,pts still progression-free and on treatment,"[4]; both arms, six pts, at time abstract was issued",7.4%
same,cerebral hemorrhage,[4]; possibly related either to the drug or to the disease,One CTC grade 2 cerebral hemorrhage
same,single agent activity,[4]; recurrent glioblastoma,advantageous single agent activity
same,tolerability,[4]; single agent therapy at two dose levels,tolerated well
